Source: patent US10010539B2, “Pyrazole, triazole and tetrazole orexin receptor antagonists” (MERCK SHARP & DOHME CORP., priority 2014, dated 2018)

How the values were obtained:
human orexin-2 receptor = human orexin-2 receptor (Homo sapiens (Human), UniProt O43614); experiment: FLIPR Ca2+ Flux Assay, orexin-2 receptor (hOX2R FLIPR); format: cell-based; conditions: CHO cells expressing the human orexin-2 receptor; agonist 70 pM Ala-6,12 human orexin-A
Method in brief: (§1)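 CHO cells expressing rat orexin-1 or human orexin-2 receptor were loaded with Fluo-4AM (1 μM, 60 min, 37 °C), preincubated with compound for 5 min, then stimulated with 70 pM Ala-6,12 human orexin-A in HBSS/HEPES/probenecid, pH7.4. Peak fluorescence over 5 min was compared with agonist-only wells to give IC50.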

[1] = target: hOXIR (orexin-1 receptor) (Homo sapiens, UniProt O43613); experiment: FLIPR Ca2+ Flux Assay, orexin-1 receptor (hOXIR FLIPR); format: cell-based; conditions: CHO cells expressing the orexin-1 receptor (method text: rat; table head: hOXIR); agonist 70 pM Ala-6,12 human orexin-A
Method in brief: as §1

human orexin-2 receptor, sequence (O43614 whole entry): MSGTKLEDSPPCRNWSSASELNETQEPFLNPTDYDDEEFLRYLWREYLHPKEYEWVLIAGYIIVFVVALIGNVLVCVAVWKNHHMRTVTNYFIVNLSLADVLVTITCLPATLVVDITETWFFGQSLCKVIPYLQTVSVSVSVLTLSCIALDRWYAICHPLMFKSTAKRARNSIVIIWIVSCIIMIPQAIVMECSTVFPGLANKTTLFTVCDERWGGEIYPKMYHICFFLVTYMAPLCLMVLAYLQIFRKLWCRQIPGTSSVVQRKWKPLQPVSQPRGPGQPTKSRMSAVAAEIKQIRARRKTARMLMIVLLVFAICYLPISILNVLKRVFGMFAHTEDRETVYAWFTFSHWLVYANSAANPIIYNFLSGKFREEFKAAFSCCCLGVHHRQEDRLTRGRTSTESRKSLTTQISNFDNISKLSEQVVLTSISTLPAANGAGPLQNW

SMILES | IC50 (human orexin-2 receptor) [µM] | IC50 [1] [µM]
C[C@@H]1CC[C@@H](n2ncc(C(C)(C)O)n2)CN1C(=O)c1ccccc1N1CCCC1 [Example 49, 2-(2-{(3R,6R)-6-methyl-1-[(2-pyrrolidin-1-ylphenyl)carbonyl]piperidin-3-yl}-2H-1,2,3-triazol-4-yl)propan-2-ol] | 0.0291 | 2.83
C[C@@H]1CC[C@@H](n2ncc(C(C)(C)O)n2)CN1C(=O)c1cccc(Oc2ccccc2)c1 [Example 50, 2-(2-{(3R,6R)-6-methyl-1-[(3-phenoxyphenyl)carbonyl]piperidin-3-yl}-2H-1,2,3-triazol-4-yl)propan-2-ol] | 0.127 | > 10
COc1cccc(-n2nccn2)c1C(=O)N1C[C@H](n2ncc(C(C)(C)O)n2)CC[C@H]1C [Example 51, 2-{2-[(3R,6R)-1-{[2-methoxy-6-(2H-1,2,3-triazol-2-yl)phenyl]carbonyl}-6-methylpiperidin-3-yl]-2H-1,2,3-triazol-4-yl}propan-2-ol] | 0.0674 | > 10
Cc1ccc(-n2nccn2)c(C(=O)N2C[C@H](n3ncc(C(C)(C)O)n3)CC[C@H]2C)c1 [Example 52, 2-{2-[(3R,6R)-6-methyl-1-{[5-methyl-2-(2H-1,2,3-triazol-2-yl)phenyl]carbonyl}piperidin-3-yl]-2H-1,2,3-triazol-4-yl}propan-2-ol] | 0.0598 | 3.09
Cc1cccc(-n2nccn2)c1C(=O)N1C[C@H](n2ncc(C(C)(C)O)n2)CC[C@H]1C [Example 53, 2-{2-[(3R,6R)-6-methyl-1-{[2-methyl-6-(2H-1,2,3-triazol-2-yl)phenyl]carbonyl}piperidin-3-yl]-2H-1,2,3-triazol-4-yl}propan-2-ol] | 0.0311 | 1.81
COc1ccc(C(=O)N2C[C@H](n3ncc(C(C)(C)O)n3)CC[C@H]2C)c(-n2nccn2)c1 [Example 54, 2-{2-[(3R,6R)-1-{[4-methoxy-2-(2H-1,2,3-triazol-2-yl)phenyl]carbonyl}-6-methylpiperidin-3-yl]-2H-1,2,3-triazol-4-yl}propan-2-ol] | 0.0533 | > 10
Cc1ccc(C(=O)N2C[C@H](n3ncc(C(C)(C)O)n3)CC[C@H]2C)c(-n2nccn2)n1 [Example 55, 2-{2-[(3R,6R)-6-methyl-1-{[6-methyl-2-(2H-1,2,3-triazol-2-yl)pyridin-3-yl]carbonyl}piperidin-3-yl]-2H-1,2,3-triazol-4-yl}propan-2-ol] | 0.222 | > 10
COCc1ccccc1C(=O)N1C[C@H](n2ncc(C(C)(C)O)n2)CC[C@H]1C [Example 56, 2-{2-[(3R,6R)-1-{[2-(methoxymethyl)phenyl]carbonyl}-6-methylpiperidin-3-yl]-2H-1,2,3-triazol-4-yl}propan-2-ol] | 0.308 | > 10
C[C@@H]1CC[C@@H](n2ncc(C(C)(C)O)n2)CN1C(=O)c1cccc2ccnn12 [Example 57, 2-{2-[(3R,6R)-6-Methyl-1-(pyrazolo[1,5-a]pyridin-7-ylcarbonyl)piperidin-3-yl]-2H-1,2,3-triazol-4-yl}propan-2-ol] | 0.489 | > 10
C[C@@H]1CC[C@@H](n2ncc(C(C)(C)O)n2)CN1C(=O)c1ncccc1-n1nccn1 [Example 58, 2-{2-[(3R,6R)-6-Methyl-1-{[3-(2H-1,2,3-triazol-2-yl)pyridin-2-yl]carbonyl}piperidin-3-yl]-2H-1,2,3-triazol-4-yl}propan-2-ol] | 0.0449 | > 10
C[C@@H]1CC[C@@H](n2ncc(C(C)(C)O)n2)CN1C(=O)c1cccnc1-n1nccn1 [Example 59, 2-{2-[(3R,6R)-6-Methyl-1-{[2-(2H-1,2,3-triazol-2-yl)pyridin-3-yl]carbonyl}piperidin-3-yl]-2H-1,2,3-triazol-4-yl}propan-2-ol] | 0.401 | > 10
C[C@@H]1CC[C@@H](n2ncc(C(C)(C)O)n2)CN1C(=O)c1cccnc1C1CC1 [Example 60, 2-(2-{(3R,6R)-1-[(2-Cyclopropylpyridin-3-yl)carbonyl]-6-methylpiperidin-3-yl}-2H-1,2,3-triazol-4-yl)propan-2-ol] | 0.609 | > 10
CC(O)c1cnn([C@@H]2CC[C@@H](C)N(C(=O)c3cccnc3OCC(F)F)C2)n1 (stereo partly drawn) [Example 61, 1-{2-[(3R,6R)-1-{[2-(2,2-Difluoroethoxy)pyridin-3-yl]carbonyl}-6-methylpiperidin-3-yl]-2H-1,2,3-triazol-4-yl}ethanol] | 0.681 | > 10
Cc1nn([C@@H]2CC[C@@H](C)N(C(=O)c3ccccc3-n3nccn3)C2)nc1C(C)(C)O [Example 62, 2-{5-Methyl-2-[(3R,6R)-6-methyl-1-{[2-(2H-1,2,3-triazol-2-yl)phenyl]carbonyl}piperidin-3-yl]-2H-1,2,3-triazol-4-yl}propan-2-ol] | 0.0125 | 1.25
Cc1nn([C@@H]2CC[C@@H](C)N(C(=O)c3cccnc3OC(C)C)C2)nc1C(C)(C)O [Example 63, 2-{5-Methyl-2-[(3R,6R)-6-methyl-1-{[2-(1-methylethoxy)pyridin-3-yl]carbonyl}piperidin-3-yl]-2H-1,2,3-triazol-4-yl}propan-2-ol] | 0.0159 | 3.35
Cc1nn([C@@H]2CC[C@@H](C)N(C(=O)c3cccnc3OCC(F)F)C2)nc1C(C)(C)O [Example 64, 2-{2-[(3R,6R)-1-{[2-(2,2-Difluoroethoxy)pyridin-3-yl]carbonyl}-6-methylpiperidin-3-yl]-5-methyl-2H-1,2,3-triazol-4-yl}propan-2-ol] | 0.0088 | 2.99
CCOc1ncccc1C(=O)N1C[C@H](n2nc(C)c(C(C)(C)O)n2)CC[C@H]1C [Example 65, 2-(2-{(3R,6R)-1-[(2-Ethoxypyridin-3-yl)carbonyl]-6-methylpiperidin-3-yl}-5-methyl-2H-1,2,3-triazol-4-yl)propan-2-ol] | 0.0151 | 2.93
Cc1nn([C@@H]2CC[C@@H](C)N(C(=O)c3ccccc3OC(F)F)C2)nc1C(C)(C)O [Example 66, 2-{2-[(3R,6R)-1-{[2-(Difluoromethoxy)phenyl]carbonyl}-6-methylpiperidin-3-yl]-5-methyl-2H-1,2,3-triazol-4-yl}propan-2-ol] | 0.0096 | 3.06
Cc1nn([C@@H]2CC[C@@H](C)N(C(=O)c3ccccc3OC(F)(F)F)C2)nc1C(C)(C)O [Example 67, 2-{5-Methyl-2-[(3R,6R)-6-methyl-1-{[2-(trifluoromethoxy)phenyl]carbonyl}piperidin-3-yl]-2H-1,2,3-triazol-4-yl}propan-2-ol] | 0.0101 | 1.15
Cc1nn([C@@H]2CC[C@@H](C)N(C(=O)c3cccnc3OCC(F)(F)F)C2)nc1C(C)(C)O [Example 68, 2-{5-mMethyl-2-[(3R,6R)-6-methyl-1-{[2-(2,2,2-trifluoroethoxy)pyridin-3-yl]carbonyl}piperidin-3-yl]-2H-1,2,3-triazol-4-yl}propan-2-ol] | 0.0069 | 1.52
CCOc1ccccc1C(=O)N1C[C@H](n2nc(C)c(C(C)(C)O)n2)CC[C@H]1C [Example 69, 2-(2-{(3R,6R)-1-[(2-Ethoxyphenyl)carbonyl]-6-methylpiperidin-3-yl}-5-methyl-2H-1,2,3-triazol-4-yl)propan-2-ol] | 0.0079 | 1.95
Cc1nn([C@@H]2CC[C@@H](C)N(C(=O)c3ccccc3C3CC3)C2)nc1C(C)(C)O [Example 70, 2-(2-{(3R,6R)-1-[(2-Cyclopropylphenyl)carbonyl]-6-methylpiperidin-3-yl}-5-methyl-2H-1,2,3-triazol-4-yl)propan-2-ol] | 0.0088 | 0.76
Cc1nn([C@@H]2CC[C@@H](C)N(C(=O)c3ccccc3-n3cccn3)C2)nc1C(C)(C)O [Example 71, 2-{5-Methyl-2-[(3R,6R)-6-methyl-1-{[2-(1H-pyrazol-1-yl)phenyl]carbonyl}piperidin-3-yl]-2H-1,2,3-triazol-4-yl}propan-2-ol] | 0.0093 | 2.71
Cc1nn([C@@H]2CC[C@@H](C)N(C(=O)c3ccc(F)cc3-n3nccn3)C2)nc1C(C)(C)O [Example 72, 2-{2-[(3R,6R)-1-{[4-Fluoro-2-(2H-1,2,3-triazol-2-yl)phenyl]carbonyl}-6-methylpiperidin-3-yl]-5-methyl-2H-1,2,3-triazol-4-yl}propan-2-ol] | 0.0152 | 1.29
Cc1nn([C@@H]2CC[C@@H](C)N(C(=O)c3cccnc3-c3ccccc3)C2)nc1C(C)(C)O [Example 73, 2-(5-Methyl-2-{(3R,6R)-6-methyl-1-[(2-phenylpyridin-3-yl)carbonyl]piperidin-3-yl}-2H-1,2,3-triazol-4-yl)propan-2-ol] | 0.0174 | 2.46
C[C@@H]1CC[C@@H](n2nnc(C(C)(C)O)n2)CN1C(=O)c1ccccc1-n1nccn1 [Example 74, 2-{2-[(3R,6R)-6-Methyl-1-{[2-(2H-1,2,3-triazol-2-yl)phenyl]carbonyl}piperidin-3-yl]-2H-tetrazol-5-yl}propan-2-ol] | 0.0449 | > 10
C[C@@H]1CC[C@@H](n2cc(C(C)(C)O)cn2)CN1C(=O)c1ccccc1-n1nccn1 [Example 75, 2-{1-[(3R,6R)-6-Methyl-1-{[2-(2H-1,2,3-triazol-2-yl)phenyl]carbonyl}piperidin-3-yl]-1H-pyrazol-4-yl}propan-2-ol] | 0.0216 | > 10
CCCc1ccccc1C(=O)N1C[C@H](n2cc(C(C)(C)O)cn2)CC[C@H]1C [Example 76, 2-(1-{(3R,6R)-6-Methyl-1-[(2-propylphenyl)carbonyl]piperidin-3-yl}-1H-pyrazol-4-yl)propan-2-ol] | 0.0523 | > 10
CCOc1ccccc1C(=O)N1C[C@H](n2cc(C(C)(C)O)cn2)CC[C@H]1C [Example 77, 2-(1-{(3R,6R)-1-[(2-Ethoxyphenyl)carbonyl]-6-methylpiperidin-3-yl}-1H-pyrazol-4-yl)propan-2-ol] | 0.121 | > 10
